Entries after “also recorded” stand apart in the source; their conditions may differ. Where two headings read alike, the source gives them in different places.
Key:
[1] = biological target: T1, CYP17A1 (Homo sapiens, UniProt P05093); experiment: Ligand binding assay, UV-visible difference spectra titration; details: for spectroscopic evidence of binding to CYP17A1 (heme spectral shift): result in words
T1 sequence (P05093 1-508): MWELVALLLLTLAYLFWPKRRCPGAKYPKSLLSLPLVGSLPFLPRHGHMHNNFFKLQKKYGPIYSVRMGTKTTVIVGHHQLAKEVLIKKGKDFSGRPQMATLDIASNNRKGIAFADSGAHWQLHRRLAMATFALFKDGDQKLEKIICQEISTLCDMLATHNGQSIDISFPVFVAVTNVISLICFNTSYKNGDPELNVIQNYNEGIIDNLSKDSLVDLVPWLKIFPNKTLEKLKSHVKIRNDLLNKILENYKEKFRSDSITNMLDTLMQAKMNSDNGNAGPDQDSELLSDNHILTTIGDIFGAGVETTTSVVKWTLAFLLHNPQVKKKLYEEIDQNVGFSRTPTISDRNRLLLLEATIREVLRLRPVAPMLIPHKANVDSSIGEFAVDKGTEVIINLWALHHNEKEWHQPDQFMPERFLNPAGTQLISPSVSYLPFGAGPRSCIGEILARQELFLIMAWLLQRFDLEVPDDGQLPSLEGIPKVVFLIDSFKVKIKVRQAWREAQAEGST
Experimental: Ligand binding assays. (Adapted from DeVore, N M, et al. (2009). Drug Metabolism and Disposition, 37(6), 1319-1327.) Ligand interaction with the heme iron was evaluated by titrating ligands into a cuvette containing purified CYP17A1, CYP2D6, or CYP3A4 and measured using a UV-visible scanning spectrophotometer. […] Ligands dissolved in DMSO were added to the sample cuvette and an equal volume of DMSO to the reference cuvette. Difference spectra were recorded from 300-500 nm after equilibration of enzyme and ligand. Binding to the enzyme was measured as the difference in maximal and minimal absorbance: A387-A419 for pregnanolone and 3-formyl pregnanolone, and A435-A393 for 3-formyl pregnanolone-20-isonitrile with CYP17A1; A434-A414 for 3-formyl pregnanolone-20-isonitrile with CYP3A4 and CYP2D6. […] All data fitting was accomplished using GraphPad Prism 9.

[2] = biological target: CYP106A2 (Priestia megaterium, UniProt Q06069); experiment: Optical difference spectrum titration of CYP106A2; type: binding, bacterial; details: result in words
Sequence of CYP106A2 (Q06069 whole entry): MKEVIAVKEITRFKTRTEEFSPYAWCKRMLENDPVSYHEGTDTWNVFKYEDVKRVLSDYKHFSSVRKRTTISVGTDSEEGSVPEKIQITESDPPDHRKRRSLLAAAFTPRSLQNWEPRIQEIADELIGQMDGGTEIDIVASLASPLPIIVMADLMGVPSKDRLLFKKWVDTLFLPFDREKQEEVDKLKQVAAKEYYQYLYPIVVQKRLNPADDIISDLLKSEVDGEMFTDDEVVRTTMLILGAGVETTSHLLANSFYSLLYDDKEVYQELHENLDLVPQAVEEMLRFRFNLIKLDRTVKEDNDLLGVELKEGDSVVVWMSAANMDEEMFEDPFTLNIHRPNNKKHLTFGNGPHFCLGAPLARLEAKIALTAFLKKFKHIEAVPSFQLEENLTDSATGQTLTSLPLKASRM
Description: FIGS. 3A-3C show the optical difference spectra when various compounds are titrated with CYPs. […] The maximum absorbance was at 430 nm and the trough was at 393 nm. […] The trough was at 418 nm.
Ligand binding assays. […] All data fitting was accomplished using GraphPad Prism 9.

[3] = biological target: T2, CYP17A1 (Homo sapiens, UniProt P05093); experiment: Inhibition assay, 17α-hydroxylation of progesterone by CYP17A1; type: biochemical
T2 sequence (P05093 24-508 limits assumed): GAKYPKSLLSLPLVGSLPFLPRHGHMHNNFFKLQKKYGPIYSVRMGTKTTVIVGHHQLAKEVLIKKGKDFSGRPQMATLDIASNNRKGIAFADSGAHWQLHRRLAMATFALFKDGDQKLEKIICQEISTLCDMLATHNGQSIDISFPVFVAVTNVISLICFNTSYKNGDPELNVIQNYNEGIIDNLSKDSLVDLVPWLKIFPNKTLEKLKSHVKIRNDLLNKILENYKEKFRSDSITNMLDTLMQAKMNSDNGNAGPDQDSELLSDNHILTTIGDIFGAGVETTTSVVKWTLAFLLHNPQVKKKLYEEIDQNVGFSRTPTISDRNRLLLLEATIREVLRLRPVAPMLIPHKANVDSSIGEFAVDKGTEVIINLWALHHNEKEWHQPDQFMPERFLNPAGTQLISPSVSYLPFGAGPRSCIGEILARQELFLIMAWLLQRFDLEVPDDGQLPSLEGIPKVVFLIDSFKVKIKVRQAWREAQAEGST
Experimental: (Adapted from DeVore, NM, Scott, EE. (2012). Nature, 482(7383), 116-119.) Metabolic activity of CYP17A1 was evaluated by measuring 17α-hydroxylation of progesterone as detected HPLC with UV detection at 240 nm. A 1:4 ratio of CYP17A1 to recombinant NADPH-cytochrome P450 reductase was mixed and incubated on ice for 20 minutes. […] Reaction vials were warmed to 37° C. for three minutes, then catalysis was initiated by adding NADPH to a final concentration of 1 mM. After 10 minutes, metabolism was quenched by adding 300 μL of 20% trichloroacetic acid and placed on ice. The reaction vials were centrifuged to pellet the precipitated protein, then the supernatant was injected onto a C18 column (Phenomenex, Luna, 50×4.6 mm) for HPLC. The 30-minute HPLC method ran at 0.8 m/min and started with a mobile phase of 60% acetonitrile, 40% water with 0.2% acetic acid for five minutes, increased to 80% acetonitrile over 10 minutes, held at 80% acetonitrile for five minutes, 100% acetonitrile for five minutes, then returned to 60% acetonitrile to prepare for the next sample. Metabolite elution was normalized to β-estradiol as an internal standard. A standard curve of known product concentrations was used to convert normalized area under curve to amount of product produced. […]

Row | Compound | spectroscopic evidence of binding to CYP17A1 (heme spectral shift) [1] | spectroscopic evidence of binding to CYP106A2 (Fe—CN—R bond formation) [2] | spectroscopic evidence of binding to CYP106A2 (Fe—CN—R bond formation) ([2]; listed as 3) | Kd [1] | IC50 ([3]; CYP17A1 progesterone hydroxylation, 11.5 μM progesterone) | inhibition of CYP17A1 progesterone hydroxylation ([3]; result in words, FIG. 5B) | Kd ([1]; CYP17A1 0.2 μM, tight binding, only estimates, read-out: Kd)
1 | 3β-formyl-(R)-(20-isonitrilo)pregnane [20-(R)-16] | binds tightly | no evidence for formation of a Fe—CN—R bonded complex | no evidence of binding | – | – | – | –
2 | [C-]#[N+][C@H](C)[C@H]1CC[C@H]2[C@@H]3CC[C@H]4C[C@@H](OC=O)CC[C@]4(C)[C@H]3CC[C@]12C [Compound 16] | induced the expected heme spectral shift from 417 to 428 nm; also recorded: bound to CYP17A1; also recorded: bind very tightly | – | – | < 100 nM | 1300 nM | inhibited | –
3 | C[C@]12CC[C@H](O)CC1=CC[C@@H]1[C@@H]2CC[C@]2(C)C(c3cccnc3)=CC[C@@H]12 [abiraterone, reference compound] | – | – | – | – | – | – | < 100 nM

— patent US20240368212A1, “SELECTIVE ISONITRILE INHIBITORS OF CYTOCHROME P450 SUBTYPES” (priority 2021, published 2024)
